How the values were obtained:
[1] = target: T1, NK2 receptor (Homo sapiens, UniProt P21452); test: neurokinin receptor binding assay, NK2
T1 sequence (P21452 1-398): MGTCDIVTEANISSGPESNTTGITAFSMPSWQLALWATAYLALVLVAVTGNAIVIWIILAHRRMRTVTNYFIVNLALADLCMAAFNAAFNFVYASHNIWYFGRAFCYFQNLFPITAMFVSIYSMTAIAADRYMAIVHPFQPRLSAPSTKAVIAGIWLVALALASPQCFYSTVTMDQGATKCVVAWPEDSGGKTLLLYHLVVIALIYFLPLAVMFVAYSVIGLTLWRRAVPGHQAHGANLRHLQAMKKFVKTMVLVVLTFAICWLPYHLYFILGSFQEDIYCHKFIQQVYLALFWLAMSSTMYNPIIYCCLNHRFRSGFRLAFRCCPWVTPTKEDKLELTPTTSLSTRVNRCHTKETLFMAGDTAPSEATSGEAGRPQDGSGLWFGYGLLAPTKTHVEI
From the text: (§1) The in vitro and in vivo activity of the compounds of formula I can be determined by various procedures known in the art, such as a test for their ability to inhibit the activity of the NK1 agonist Substance P, an isolated hamster trachea NK2 assay, a test of the effect of NK1 antagonists on Substance P-induced airway microvascular leakage, measurement of NK2 activity in vivo in guinea pigs, measurement of bronchoconstriction due to NKA, and neurokinin receptor binding assay(s). Typical procedures are described in WO96/34857, published November 7, 1996. NK3 activity is determined by following a procedure similar to that described in the literature, e.g., Molecular Pharmacol., 48 (1995), p. 711-716.
(§2) % Inhibition is the difference between the percent of maximum specific binding (MSB) and 100%. The percent of MSB is defined by the following equation, wherein "dpm" is disintegrations per minute: % MSB =((dpm of unknown) - (dpm of nonspecific binding))/((dpm of total binding) - (dpm of nonspecific binding))X 100 [formula]

[2] = target: NK1 receptor (Homo sapiens, UniProt P25103); test: neurokinin receptor binding assay, NK1
From the text: as §1, §2

Sequence of NK1 receptor (P25103 whole entry, species assumed): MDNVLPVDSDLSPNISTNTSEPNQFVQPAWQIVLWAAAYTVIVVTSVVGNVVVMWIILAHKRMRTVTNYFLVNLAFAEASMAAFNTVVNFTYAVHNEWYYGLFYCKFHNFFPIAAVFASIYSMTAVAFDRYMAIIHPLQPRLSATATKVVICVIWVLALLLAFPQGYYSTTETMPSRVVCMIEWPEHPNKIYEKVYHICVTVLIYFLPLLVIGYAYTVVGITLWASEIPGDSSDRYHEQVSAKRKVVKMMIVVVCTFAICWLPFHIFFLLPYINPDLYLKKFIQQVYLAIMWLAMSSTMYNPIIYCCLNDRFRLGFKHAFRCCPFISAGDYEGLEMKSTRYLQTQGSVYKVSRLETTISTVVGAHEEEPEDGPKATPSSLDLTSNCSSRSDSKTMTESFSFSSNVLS

`CON=C(CN(C)C(=O)c1cc(C(F)(F)F)cc(C(F)(F)F)c1)C(CCN1CCC(O)(c2ccccc2)CC1)c1ccc(Cl)c(Cl)c1` (centres unmarked) [Example 11] was tested, and the Ki [1] was 9.2 nM and the Ki [2] was 3.6 nM.
